Results: US20230129485A1, “SYSTEM AND METHOD FOR DETERMINING MATERIAL PROPERTIES OF MOLECULAR SYSTEMS FROM AN AB-INITIO PARAMETERIZED FORCE-FIELD” (InterX, Inc., priority 2021, published 2023)
Where two headings read alike, the source gives them in different places.

What was measured:
[1] = Free energy of hydration predicted with the QM-parameterized force field model (ARROW FF), classical MD and PIMD simulation in a water box; details: for Arrow error: Table 5, error of Arrow PIMD8 hydration free energy vs experiment; for Arrow PIMD8 Error: absolute error vs Exp (hydration)
Outline: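 Solute decoupled from solvent in a 32×32×32 Å3 water box (PME, 9 Å cutoffs), electrostatics, exchange-repulsion and dispersion switched off together over 15 lambda points with soft-coring. Steepest-descent minimization, 50 ps equilibration, 1 ns NPT production at 1 atm; classical and path-integral MD. Free energy from BAR and TI.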

[2] = Free energy of solvation in cyclohexane predicted with the QM-parameterized force field model (ARROW FF), MD and PIMD; details: Table 4; for CHEX Arrow MD Error: error of MD cyclohexane solvation free energy vs experiment; for CHEX Arrow PIMD4 Error: error of PIMD4 cyclohexane solvation free energy vs experiment
From the text: Cyclohexane (CHEX) is nonpolar and equilibrates relatively quickly.
Particle-Mesh Ewald (PME) algorithm was used to compute the electrostatic interactions. A 32×32×32 grid mesh and 5th power spline interpolation order can be used to compute the inverse PME sum. 9 Å cutoffs were used to compute the direct PME sum as well as the exchange and dispersion interactions. Bulk corrections were applied to account for distance cut-off of dispersion interactions. Solvation free energies were computed by decoupling the interactions between the solute and the solvent molecules. Electrostatic, exchange-repulsion and dispersion interactions were switched off simultaneously using a lambda-dependent scaling (a scaling factor power=2 was used) and a soft-coring algorithm (maximal soft-coring radius=1.5 Å, soft-coring radius scaling factor power=1). 15 lambda points unequally spaced (X=0, 0.05, 0.1, 0.2, 0.3, 0.4, 0.5, 0.6, 0.7, 0.75, 0.8, 0.85, 0.9, 0.95, 1.0) were used to decouple the solute-solvent intermolecular interactions.
In some simulations of the QM-parameterized force field molecular simulation process, energy minimization (10,000 steps) using the steepest descent algorithm was initially performed on all the simulation systems. This was followed by a 50 ps equilibration and 1 ns production runs in the isothermal-isobaric ensemble (NPT). […] Pressure was maintained at 1 atm using a MTTK barostat (relaxation time=5 ps). A Multiple Time Step (MTS) algorithm was used to integrate the equations of motion both for the classical and path-integral runs. […] The calculations were performed using the QM-parameterized force field model.
Using the QM-parameterized force field model, the QM-parameterized force field device can compute or predict the solvation free energies using both the Bennett acceptance ratio (BAR) and thermodynamic integration (TI) method with <dH/dλ> values interpolated by cubic splines.

[3] = Free energy of hydration predicted by General Amber Force Field (GAFF), from literature; details: Table 5; error of GAFF hydration free energy vs experiment
[4] = Free energy of hydration predicted by polarizable AMOEBA force field, from literature; details: Table 5; error of AMOEBA hydration free energy vs experiment
[5] = Free energy of hydration by COSMO implicit solvent model (MolPro ver. 2012); details: absolute error vs Exp (hydration)
Outline: (§1)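 The set is limited to molecules shared with the QM-parameterized force field calculations for the SMD, PCM and COSMO-RS models. SMD and PCM predictions came from an outside source, while COSMO solvation free energies were generated in-house with MolPro.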

[6] = Free energy of hydration by Solvation Model Dielectric (SMD) implicit solvent model; details: absolute error vs Exp (hydration)
Outline: as §1

[7] = Free energy of hydration by Polarizable Continuum Model (PCM); details: absolute error vs Exp (hydration)
Outline: as §1

[8] = Free energy of hydration by COSMO-RS
Outline: as §1

[9] = experimental, cited from earlier work; for Exp (hydration): Table 5
[10] = experimental, cited from earlier work
[11] = Table 5; free energy of hydration, GAFF prediction taken from literature; cited from earlier work
[12] = Table 5; free energy of hydration, AMOEBA prediction taken from literature; cited from earlier work
[13] = implicit solvent model, values received; cited from earlier work
[14] = implicit solvent model, values received; cited from earlier work; remark: listed apart in the source
[15] = CHEX/H2O partition coefficient (log D) predicted with the QM-parameterized force field model (ARROW FF)
Outline: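 Cyclohexane/water partition coefficients were predicted by molecular simulation with a QM-parameterized force field, with bonded force constants and equilibrium values fitted to MP2/aug-cc-pVTZ energies. Solutes carried neutral functional groups, and results from four independent groups were averaged.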

[16] = Table 3; CHEX/H2O partition coefficient, experimental; cited from earlier work
[17] = Table 3, absolute error of MD hydration free energy vs experiment
[18] = Table 3, absolute error of PIMD8 hydration free energy vs experiment
[19] = Table 4, error of MD hydration free energy vs experiment
[20] = Table 4, error of PIMD8 hydration free energy vs experiment
[21] = Table 3, free energy of hydration
[22] = Table 4, neutral amino-acid analogues
[23] = Table 3, free energy of solvation in cyclohexane
[24] = Table 4, solvation free energy in cyclohexane
[25] = Table 3, absolute error of MD log D vs experiment
[26] = Table 3, absolute error of PIMD log D vs experiment

| SMILES | water Arrow MD Error [1, 17] | water Arrow PIMD8 Error [1, 18] | water Arrow MD Error [1, 19] | water Arrow PIMD8 Error [1, 20] | Arrow error [1] | Arrow PIMD8 Error [1] | GAFF error [3] | AMOEBA error [4] | COSMO/Molpro Error [5] | SMD Error [6] | PCM Error [7] | COSMO-RS error [8] | water Exp (hydration) [9, 21] | Exp (hydration) ([9]; free energy of hydration) | CHEX Exp (solvation) [10, 23] | GAFF [11] | AMOEBA [12] | SMD free energy of hydration [13] | PCM free energy of hydration [14] | Exp (log D) [16] | other results |
| --- | --- | --- | --- | --- | --- | --- | --- | --- | --- | --- | --- | --- | --- | --- | --- | --- | --- | --- | --- | --- | --- |
| CC(N)=O [Acetamide] | 0.87 kcal/mol | 0.06 kcal/mol | 0.87 kcal/mol | 0.06 kcal/mol | 0.06 kcal/mol | 0.06 kcal/mol | 1.91 kcal/mol | 0.41 kcal/mol | 4.11 kcal/mol | 0.71 kcal/mol | 2.81 kcal/mol | 2.55 kcal/mol | -9.71 kcal/mol | -9.71 kcal/mol | -3.01 kcal/mol | -7.80 kcal/mol | -9.30 kcal/mol | -9.00 kcal/mol | -6.90 kcal/mol | – | CHEX Arrow MD Error [2]: 0.63 kcal/mol; CHEX Arrow PIMD4 Error [2]: 0.58 kcal/mol; water Exp (hydration) [9, 22]: -9.71 kcal/mol; CHEX Exp (solvation) [10, 24]: -3.01 kcal/mol |
| CC(=O)O [AceticAcid] | 0.19 kcal/mol | 0.34 kcal/mol | 0.19 kcal/mol | 0.34 kcal/mol | 0.34 kcal/mol | 0.34 kcal/mol | 0.74 kcal/mol | 1.06 kcal/mol | 2.47 kcal/mol | 0.99 kcal/mol | 2.19 kcal/mol | 0.22 kcal/mol | -6.69 kcal/mol | -6.69 kcal/mol | -2.20 kcal/mol | -5.95 kcal/mol | -5.63 kcal/mol | -5.70 kcal/mol | -4.50 kcal/mol | – | CHEX Arrow MD Error [2]: 0.09 kcal/mol; CHEX Arrow PIMD4 Error [2]: 0.01 kcal/mol; water Exp (hydration) [9, 22]: -6.69 kcal/mol; CHEX Exp (solvation) [10, 24]: -2.20 kcal/mol |
| CCCCCCCC [Octane] | 1.27 kcal/mol | 0.06 kcal/mol | – | – | 0.04 kcal/mol | 0.06 kcal/mol | 0.25 kcal/mol | 1.14 kcal/mol | 3.74 kcal/mol | 0.19 kcal/mol | 3.19 kcal/mol | 0.10 kcal/mol | 2.89 kcal/mol | 2.88 kcal/mol | -5.63 kcal/mol | 3.13 kcal/mol | 1.74 kcal/mol | 2.70 kcal/mol | -0.30 kcal/mol | 6.25 | log D Arrow MD Error [15]: 0.50; log D Arrow PIMD Error [15]: 0.20 |
| Oc1ccccc1 [Phenol] | 1.02 kcal/mol | 0.18 kcal/mol | – | – | 0.18 kcal/mol | 0.18 kcal/mol | 0.95 kcal/mol | 1.57 kcal/mol | 0.92 kcal/mol | 1.42 kcal/mol | 2.62 kcal/mol | 0.62 kcal/mol | -6.62 kcal/mol | -6.62 kcal/mol | -5.56 kcal/mol | -5.67 kcal/mol | -5.05 kcal/mol | -5.20 kcal/mol | -4.00 kcal/mol | −0.78 | log D Arrow MD Error [15, 25]: 0.65; log D Arrow PIMD Error [15, 26]: 0.21 |
| CCN [ethylamine] | 1.03 kcal/mol | 0.12 kcal/mol | – | – | 0.12 kcal/mol | 0.12 kcal/mol | 1.36 kcal/mol | 0.17 kcal/mol | 1.30 kcal/mol | 0.70 kcal/mol | 1.70 kcal/mol | 0.30 kcal/mol | -4.50 kcal/mol | -4.50 kcal/mol | -2.13 kcal/mol | -3.14 kcal/mol | -4.33 kcal/mol | -3.80 kcal/mol | -2.80 kcal/mol | −1.74 | log D Arrow MD Error [15, 25]: 0.69; log D Arrow PIMD Error [15, 26]: 0.08 |
| CN(C)C [trimethylamine] | 1.04 kcal/mol | 0.02 kcal/mol | – | – | 0.02 kcal/mol | 0.02 kcal/mol | 0.88 kcal/mol | 1.11 kcal/mol | 0.30 kcal/mol | 0.70 kcal/mol | 1.90 kcal/mol | 2.55 kcal/mol | -3.20 kcal/mol | -3.20 kcal/mol | -2.63 kcal/mol | -2.32 kcal/mol | -2.09 kcal/mol | -2.50 kcal/mol | -1.30 kcal/mol | −0.42 | log D Arrow MD Error [15]: 0.10; log D Arrow PIMD Error [15]: 0.43 |
